The test system of one experiment is psyllids. Conditions: under certain conditions; timing of application very limited (De Maeyer et al.); cited from earlier work.
The test system of another experiment is Trioza erythreae. As to the kind of experiment: Field spray test against psyllids on orange trees (Example A). It counts as in vivo. The settings on record: 144 g a.i./ha, 240 SC + 0.2% RME; for Efficacy in % Abbott 7TNAA: 540 l water per ha, 7 days after the first treatment; for Efficacy in % Abbott 7TNAB / Efficacy in % Abbott 13TNAB: two applications at interval of one week; for Efficacy in % Abbott 7TNAB: 7 days after the last treatment; for Efficacy in % Abbott 13TNAB: 13 days after the last treatment. The method, then: • Pest: Trioza erythreae • Plant: Orange
The compound of the formula (I) (240 SC) was tested at an application rate of 144 g a.i./ha+0.2% a.i. rapeseed oil methyl ester (RME) at 540 l water per ha in comparison with spirodiclofen application rate comparison.
Spraying was effected by means of a pneumatic knapsack sprayer.
The experiment was carried out using one tree per plot and three replications. In each case two applications were carried out at an interval of one week.
The activity against psyllids was determined by counting the number of live animals on 20 leaves per tree 7 days after the first treatment and 7 and 13 days after the last treatment. The efficacy was calculated with the aid of Abbott's formula.

For experiment [1], the system named is insects from the family Aleyrodidae. Conditions: known from EP-A-0 528 156; cited from earlier work.
The next experiment has as its system Paratrioza cockerelli. Put plainly: Field spray test against psyllids on tomato (Example B). The settings on record: 72 g a.i./ha, 240 SC. The class given is in vivo. The method, then:
• Pest: Paratrioza cockerelli • Plant: Tomato The compound of the formula (I) (240 SC) was tested at an application rate of 72 […] water application rate of 345 l ha in comparison with Leverage (48 g a.i./ha imidacloprid+33 […]). Spraying was effected by means of a manually operated knapsack sprayer. The experiment was carried out with 10-m^2 plots and three replications. In each case two applications were carried out at an interval of one week. The activity against […] determined by counting the number of live animals on 10 leaves 7 days after the first treatment and 7 and 14 days after the second treatment. The efficacy was calculated with the aid of Abbott's formula.

The conditions of experiment [2]: known from EP-A-0 528 156; cited from earlier work.
Experiment [3] relates to insects from the family Psyllidae. Put plainly: Control of insects from the family Psyllidae, comparison with spirodiclofen. It counts as in vivo.

Consider two molecules from patent publication US9480253B2, “Use of 3-(2,4,6-Trimethylphenyl)-4-neopentylcarbonyloxy-5,5-tetramethylene-delta-3-dihydrofuran-2-one for controlling psyllids” (BAYER INTELLECTUAL PROPERTY GMBH, priority 2004, dated 2016).

Regarding `CCC(C)(C)C(=O)OC1=C(c2ccc(Cl)cc2Cl)C(=O)OC12CCCCC2` [Spirodiclofen, reference compound], in the experiment on psyllids, the “ovicidal activity against psyllids” value is given as “ovicidal activity”. Moreover, in the experiment on Trioza erythreae, the “Efficacy in % Abbott 7TNAA” value was determined as 80.3 % Abbott, the “Efficacy in % Abbott 7TNAB” value was determined as 91.5 % Abbott and the “Efficacy in % Abbott 13TNAB” value came to 88.1 % Abbott.

Take `Cc1cc(C)c(C2=C(OC(=O)CC(C)(C)C)C3(CCCC3)OC2=O)c(C)c1` [Compound of the formula (I), 3-(2,4,6-Trimethylphenyl)-4-neopentylcarbonyloxy-5,5-tetramethylene-Δ^3-dihydrofuran-2-one]: the “activity against insects from the family Aleyrodidae” value in experiment [1] is “active”. For the same molecule, in the experiment on Trioza erythreae, the “Efficacy in % Abbott 7TNAA” value was found to be 95 % Abbott, the “Efficacy in % Abbott 7TNAB” value came to 97.5 % Abbott and the “Efficacy in % Abbott 13TNAB” value was found to be 95.2 % Abbott. Moreover, the “Efficacy in % Abbott 7TNAA” value in the experiment with Paratrioza cockerelli (345 l water/ha, 7 days after the first treatment) was 80.3 % Abbott. In addition, in the experiment on Paratrioza cockerelli (two applications at interval of one week, 7 days after the second treatment), the “Efficacy in % Abbott 7TNAB” value is 84.8 % Abbott. For the same molecule, the “Efficacy in % Abbott 14TNAB” value in the experiment on Paratrioza cockerelli (two applications at interval of one week, 14 days after the second treatment) stood at 98.7 % Abbott. For the same molecule, in experiment [2], the acaricidal activity result is “acaricidal activity”. Also, in experiment [3], the “effectiveness in controlling insects from the family Psyllidae relative to spirodiclofen” value is “considerably more effective than spirodiclofen”.
